Assay results as given in patent US20240101551A1, “CRYSTAL FORM AND SALT FORM OF BROMINE DOMAIN PROTEIN INHIBITOR AND PREPARATION METHOD THEREFOR” (CHIA TAI TIANQING PHARMACEUTICAL GROUP CO., LTD., priority 2020, published 2024).

Experiments:
BRD4 (BD2) = BRD4 (BD2) (Homo sapiens (Human), UniProt O60885); assay: In vitro enzymatic activity assay on BRD4 (BD2), HTRF; type: binding; settings: GST-BRD4 (BD2, 349-460 aa)
Description: In the present application, the IC50 value of the compound of formula (I) in inhibiting BRD4 (BD2) enzyme binding reaction were determined by homogeneous time resolved fluorescence (HTRF). The compound of formula (I) was serially diluted 5-fold with 100% DMSO starting from 1 mM (7 concentrations in total), and then 2 μL of the compound of formula (I) at each concentration was added to 18 μL of a reaction buffer (20 mM HEPES pH 7.5, 150 mM NaCl, 5 mM DTT, 0.005% Tween 20, and 100 μg/mL BSA) for dilution. After being mixed well, 2 μL of the compound of formula (I) at each concentration was added to 48 μL of the above reaction buffer for dilution, and mixed well (final concentration of the compound of formula (I) in DMSO: 0.1%). […] After being incubated in the incubator for another 1 hour, the fluorescence values (excited at 320 nm, emitted light at 665 nm and 620 nm being detected, and the ratio of the two being the enzyme binding signal) were read on Envision (purchased from PerkinElmer). The binding strength of the compound of formula (I) to BRD4 (BD2) protein was determined respectively at 7 concentrations, and the data were calculated using GraphPad Prism software to obtain the IC50 value of the compound of formula (I).

[1] = Animal pharmacokinetic study; type: in vivo, rats
Description: Three healthy adult male rats that obtained from Beijing Vital River Laboratory Animal Technology Co., Ltd were used for the animal pharmacokinetic experiment. The compound of formula (I) was suspended in 2% absolute ethanol, 5% tween 80, 20% polyethylene glycol 400, and 73% (5% hydroxypropylmethyl cellulose in water) (V/V/V/V) at a concentration of 1 mg/mL. The administration volume was 5 mL/kg, and animals were treated with a single intragastric administration at a dose of 5 mg/kg Animals were fasted overnight prior to the experiment, and the fasting time was from 10 hours before administration to 4 hours after administration. Blood was sampled at 0.25, 0.5, 1, 2, 4, 6, 8 and 24 hours after administration Animals were lightly anesthetized with isoflurane, and approximately 0.4 mL of whole blood was collected from the orbital venous plexus using a glass blood collection tube, and placed in a heparin anticoagulation tube. The sample was centrifuged at 4200 rpm for 5 minutes at 4° C., and then the plasma was transferred to a centrifuge tube and stored at −80° C. until analyzed. In the plasma sample analysis, test compound and internal standard (warfarin or propranolol) were extracted from rat plasma by acetonitrile protein precipitation, and the extracts were analyzed by LC/MS/MS. The measured plasma concentration-time data of the individual animals were analyzed using a non-compartmental model of WinNonlin (version no. 5.2.1; Pharsight) software to give pharmacokinetic parameters as shown in Table 17 below: the maximum (peak) plasma drug concentration C,max; the time to peak Tmax; the half-life T1/2 and the area under the plasma concentration-time curve extrapolated to infinity AUC0-inf.

BRD4 (BD1) = BRD4 (BD1) (Homo sapiens (Human), UniProt O60885); assay: In vitro enzymatic activity assay on BRD4 (BD1), HTRF; type: binding; settings: GST-BRD4 (BD1, 44-168 aa)
Description: In the present application, the IC50 value of the compound of formula (I) in inhibiting BRD4 (BD1) enzyme binding reaction were determined by homogeneous time resolved fluorescence (HTRF). The compound of formula (I) was serially diluted 5-fold with 100% DMSO starting from 0.2 mM (7 concentrations in total), and then 2 μL of the compound of formula (I) at each concentration was added to 48 μL of a reaction buffer (20 mM HEPES pH 7.5, 150 mM NaCl, 5 mM DTT, 0.005% Tween 20, and 100 μg/mL BSA) for dilution, and mixed well. 2.5 μL of the resulting mixture was added to a 384-well plate (OptiPlate-384, purchased from PerkinElmer), then 5 μL of GST-BRD4 (BD1, 44-168 aa) (final concentration: 1 nM) was added, and the resulting mixture was centrifuged, and fully mixed. […] After being incubated in the incubator for another 1 hour, the fluorescence values (excited at 320 nm, emitted light at 665 nm and 620 nm being detected, and the ratio of the two being the enzyme binding signal) were read on Envision (purchased from PerkinElmer). The binding strength of the compound of formula (I) to BRD4 (BD1) protein was determined respectively at 7 concentrations, and the data were calculated using GraphPad Prism software to obtain the ICso value of the compound of formula (I).

[2] = Study on stability under influencing factors (high temperature, high humidity, light) of the crystal forms; type: physicochemical
Description: In order to evaluate the solid stability of the crystal forms of the present application, the stability of each of the crystal form I, the crystal form A, the crystal form D, the crystal form E and the crystal form F under influencing factors (high temperature, high humidity and light) was investigated. Each of the crystal forms was stored under the high temperature condition (60±2° C., open (weighing bottle)), and the high humidity condition (room temperature, 92.5%±5% RH, open (weighing bottle) and packaged) for 5 days, 10 days and 30 days, and under the ICH light condition (5500 Lux, 0.9 w/m^2, closed (weighing bottle) and packaged) for 5 days and 10 days. The inner packaging material of the packaged sample was a medical low-density polyethylene bag, and the outer packaging material is a medical polyester/aluminum/polyethylene composite bag. The samples after the storage were characterized by properties, purity (HPLC), crystal form (XRD) and water content to detect the changes in the crystal form and purity. The results are shown in Tables 8-12 (“^#” indicates the ICH condition).

[3] = rat, po, male rats, single intragastric administration, 5 mg/kg, plasma
[4] = Light (ICH, 5500 Lux), closed, 5 days
[5] = Light (ICH, 5500 Lux), closed, 10 days
[6] = 92.5% RH, room temperature, open, 10 days
[7] = 92.5% RH, room temperature, open, 30 days

Crystal form change ([2]; Light (ICH), packaged, 10 days) | Impurity content ([2]; Light (ICH), packaged, 10 days) [%] | Water content ([2]; Light (ICH), packaged, 10 days) [%] | Impurity content [2, 4] [%] | Crystal form change [2, 5] | Impurity content [2, 5] [%] | Water content [2, 5] [%] | Impurity content ([2]; starting crystal form) [%] | Water content ([2]; starting crystal form) [%] | Impurity content ([2]; 60° C., open, 5 days) [%] | Crystal form change ([2]; 60° C., open, 10 days) | Impurity content ([2]; 60° C., open, 10 days) [%] | Crystal form change ([2]; 60° C., open, 30 days) | Impurity content ([2]; 60° C., open, 30 days) [%] | further results | Compound
 |  |  |  |  |  |  |  |  |  |  |  |  |  | IC50 (BRD4 (BD2)): 0.25 nM; AUC(0-inf) [1, 3]: 3470 ng·h/mL; Cmax [1, 3]: 372 ng/mL; Tmax [1, 3]: 2.67 h; half-life [1, 3]: 5.25 h; Pharmacokinetic properties (conclusion) ([1]; rats, 5 mg/kg intragastric): good pharmacokinetic properties; IC50 (BRD4 (BD1)): 0.64 nM | Cn1cc(-c2nc(N=S(C)(C)=O)ccc2Oc2ccc(F)cc2F)c2cc[nH]c2c1=O [Compound of formula (I), 4-{3-(2,4-difluorophenoxy)-6-{[dimethyl(oxo)-λ^6-sulfaneylidene]amino}-pyridin-2-yl}-6-methyl-1,6-dihydro-7H-pyrrolo[2,3-c]pyridin-7-one]
Unchanged | 1.32 | 6.6 | 1.32 | Unchanged | 1.35 | 8.1 | 1.30 | 5.8 |  |  |  |  |  |  | Cn1cc(-c2nc(N=S(C)(C)=O)ccc2Oc2ccc(F)cc2F)c2cc[nH]c2c1=O [crystal form A]
Unchanged | 0.08 | 1.2 | 0.11 | Unchanged | 0.09 | 1.1 | 0.05 | 1.4 | 0.19 | Unchanged | 0.27 | Unchanged | 0.44 | Water content ([2]; 60° C., open, 10 days): 1.0%; Water content ([2]; 60° C., open, 30 days): 0.68%; Crystal form change ([2]; 92.5% RH, packaged, 30 days): Unchanged; Impurity content ([2]; 92.5% RH, packaged, 30 days): 0.12%; Water content ([2]; 92.5% RH, packaged, 30 days): 1.0%; Impurity content ([2]; 92.5% RH, room temperature, open, 5 days): 0.07%; Crystal form change [2, 6]: Unchanged; Impurity content [2, 6]: 0.06%; Water content [2, 6]: 2.0%; Crystal form change [2, 7]: Unchanged; Impurity content [2, 7]: 0.07%; Water content [2, 7]: 1.9% | Cn1cc(-c2nc(N=S(C)(C)=O)ccc2Oc2ccc(F)cc2F)c2cc[nH]c2c1=O [crystal form D]
 |  |  |  |  |  |  | 0.18 |  | 0.20 | Unchanged | 0.21 | Unchanged | 0.21 |  | Cn1cc(-c2nc(N=S(C)(C)=O)ccc2Oc2ccc(F)cc2F)c2cc[nH]c2c1=O [crystal form E]
 |  |  |  |  |  |  | 0.17 |  | 0.18 | Unchanged | 0.20 | Unchanged | 0.22 |  | Cn1cc(-c2nc(N=S(C)(C)=O)ccc2Oc2ccc(F)cc2F)c2cc[nH]c2c1=O [crystal form F]
